Experimental data published in US20080075767A1, “IBUPROFEN-CONTAINING LIQUID FILLED HARD CAPSULES” (priority 2006, published 2008).
Like-named read-outs stand apart in the source and are kept apart here.

How the values were obtained:
[1] = From the text: Different solvent systems such as oils and medium chain triglycerides, solubilizing agents, emulsifying agents (self-emulsifying) and surfactants for the liquid filled capsules were screened for their effectiveness in solubilizing ibuprofen and are listed in Tables 5 to 6.
The screening method involved the following steps:
2. Step T2: the sample was heated using a hot plate and stirrer to facilitate ibuprofen solubility in the vehicle and the samples were left overnight.
3. […] Additional ibuprofen was added by reheating selected T2 solutions until re-crystallization or precipitation was observed.
Observations on whether ibuprofen appeared as dissolved, a suspension (fine suspension) or crystallized (agglomerates) were reported.

[2] = Ibuprofen lysinate vehicle screening; details: ibuprofen lysinate (IBL) in the excipient named; outcome in Comments cell beside
[3] = Ibuprofen vehicle screening (single excipients); assay type: physicochemical; details: for Approx. Percentage of API that Resulted in Precipitate: ibuprofen USP in the excipient named, precipitate within approx. 24 h after cooling to room temperature, * = close to saturation point, only a few crystals
Description: Initially, ibuprofen United States Pharmacopeia grade (USP) powder was mixed at room temperature with individual excipients being considered as shown in Table 1. Ibuprofen was incrementally added and mixed until a precipitate was observed. […] Observations were made daily to determine if the mixture would remain a solution or precipitate out within an approximately 24 hour period.

[4] = Water activity (Rotronic Hygrolab); assay type: physicochemical; details: water activity at 19.56-19.87 °C

Row | Amt of API added [1] [mg] | Observation [1] | Approximate Percentage of IBL salt added in powder form to excipient and heated [2] [%] | Approx. Percentage of API that Resulted in Precipitate [3] | Amt of API added ([1]; 24 h) [mg] | Observation ([1]; 24 h) | Approx. Max. Percentage of API in Solution Tested ([3]; ibuprofen USP in the single excipient named, melted in on hot plate, remained in solution approx. 24 h) [%] | Compound | AW Reading [4]
1 | 250.0 | Turbid (T1) | 2.2 | 2.5% |  |  |  | OCC(O)CO [Glycerin] | 
2 |  |  | 2.4 | 28 * % | 4000.0 | Crystallized (T3) | 17 | CC(O)CO (stereo not drawn) [Propylene Glycol] | 
3 | 257.8 | Solidify (T1) |  |  |  |  |  | Castor Oil | 
4 |  |  |  |  |  |  |  | O [Water] | 0.999
